“Also recorded” adds a separate entry of the source.
Experiments:
QC activity in serum = QC activity in serum (Homo sapiens, UniProt Q16769); settings: after single and multiple doses
[1] = Phase 1 CSF pharmacokinetics; type: in vivo, human; settings: for concentration at 12 h: Min (C 12 h)
QC activity in CSF = QC activity in CSF (Homo sapiens, UniProt Q16769); settings: after single and multiple doses
[2] = 50 mg bid solution, fasted, nonelderly, day 11, geo mean (CV%)

Sequence of QC activity in serum (Q16769 29-361): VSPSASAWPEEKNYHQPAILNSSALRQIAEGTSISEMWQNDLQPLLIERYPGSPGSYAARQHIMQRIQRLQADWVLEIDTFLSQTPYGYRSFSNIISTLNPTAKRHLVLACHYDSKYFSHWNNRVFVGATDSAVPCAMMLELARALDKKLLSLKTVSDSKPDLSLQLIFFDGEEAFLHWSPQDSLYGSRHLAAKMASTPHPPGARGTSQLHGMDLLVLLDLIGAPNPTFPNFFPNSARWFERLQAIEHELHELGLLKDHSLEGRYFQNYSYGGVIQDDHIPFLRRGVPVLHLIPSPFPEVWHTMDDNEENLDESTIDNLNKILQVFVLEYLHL
Sequence of QC activity in CSF (Q16769 29-361): as above

Question: For CCCOc1ccc([C@H]2CNC(=O)N2c2ccc3[nH]cnc3c2)cc1 [PQ912], which “QC activity in serum” value (QC activity in serum) is on record?
Answer: Its value is “inhibited in a dose-related manner; also recorded: decreased in a dose-related manner”.

Question: What about the “CSF AUC(0–12 h)” value ([1]; 20 mg bid solution, fasted, nonelderly, day 11, estimated as plasma AUC × 0.05) of the same compound?
Answer: The value was 6 ng·h/mL.

Question: What about the “CSF concentration, Max (C 3 h)” value ([1]; 20 mg bid solution, fasted, nonelderly, day 11, estimated, mean × 1.6) of the same compound?
Answer: Its value is 0.8 ng/mL.

Question: And the “CSF AUC(0–12 h)” value [1, 2]?
Answer: Its value is 17.3 (34.8) ng.h/mL.

Question: And the “CSF concentration, Max (C 3 h)” value [1, 2]?
Answer: Its value is 2.32 (34.5) ng/mL.

Question: What about the “CSF AUC(0–12 h)” value ([1]; 100 mg bid solution, fed, nonelderly, day 11, geo mean (CV%)) of the same compound?
Answer: The value was 44.7 (27.2) ng.h/mL.

Question: And the “CSF AUC(0–12 h)” value ([1]; 200 mg bid capsule, fasted, elderly, day 7, estimated as plasma AUC × 0.05)?
Answer: Its value is 195 ng·h/mL.

Question: What about the “CSF concentration, Max (C 3 h)” value ([1]; 200 mg bid capsule, fasted, elderly, day 7, estimated, mean × 1.6) of the same compound?
Answer: Its value is 25.9 ng/mL.

Question: And the “CSF AUC(0–12 h)” value ([1]; 200 mg bid solution, fasted, nonelderly, day 11, estimated as plasma AUC × 0.05)?
Answer: Its value is 91.7 ng·h/mL.

Question: And the “CSF concentration, Max (C 3 h)” value ([1]; 300 mg bid capsule, fasted, elderly, day 7, estimated, mean × 1.6)?
Answer: Its value is 37.7 ng/mL.

Question: What about the “CSF AUC(0–12 h)” value ([1]; 300 mg bid capsule, fasted, elderly, day 7, geo mean (CV%)) of the same compound?
Answer: Its value is 275 (40.7) ng.h/mL.

Question: What about the “CSF AUC(0–12 h)” value ([1]; 400 mg bid capsule, fasted, nonelderly, day 11, geo mean (CV%)) of the same compound?
Answer: Its value is 236 (25.0) ng.h/mL.

Question: What about the “CSF concentration, Max (C 3 h)” value ([1]; 500 mg bid capsule, fed, nonelderly, day 11, estimated, mean × 1.6) of the same compound?
Answer: Its value is 62.0 ng/mL.

Question: What about the “CSF concentration, Max (C 3 h)” value ([1]; 500 mg bid tablet, fasted, elderly, day 11, estimated, mean × 1.6) of the same compound?
Answer: The value was 79.0 ng/mL.

Question: What about the “CSF AUC(0–12 h)” value ([1]; 500 mg bid tablet, fasted, elderly, day 11, geo mean (CV%)) of the same compound?
Answer: Its value is 530 (36.6) ng.h/mL.

Question: What about the “CSF AUC(0–12 h)” value ([1]; 800 mg bid tablet, fasted, elderly, day 11, estimated as plasma AUC × 0.05) of the same compound?
Answer: The value was 1230 ng·h/mL.

Question: And the “CSF concentration, Max (C 3 h)” value ([1]; 800 mg bid tablet, fasted, elderly, day 11, estimated, mean × 1.6)?
Answer: Its value is 163.7 ng/mL.

Question: And the concentration at 3 h ([1]; human, CSF, oral, 100 mg, CSF concentration, Max (C 3 h), 100 mg bid solution, fed, nonelderly, day 11, geo mean (CV%))?
Answer: Its concentration at 3 h is 6.02 ng/mL.

Question: And the concentration at 12 h ([1]; human, CSF, oral, 100 mg, CSF concentration, 100 mg bid solution, fed, nonelderly, day 11, geo mean (CV%))?
Answer: Its concentration at 12 h is 1.92 ng/mL.

Question: And the half-life ([1]; human, CSF, oral, 100 mg, CSF t1/2, 100 mg bid solution, fed, nonelderly, day 11, geo mean (CV%))?
Answer: Its half-life is 6.38 h.

Question: And the concentration at 12 h ([1]; human, CSF, oral, 200 mg, CSF concentration, 200 mg bid capsule, fasted, elderly, day 7, estimated, mean × 0.53)?
Answer: The concentration at 12 h was 8.6 ng/mL.

Question: What about the concentration at 12 h ([1]; human, CSF, oral, 500 mg, CSF concentration, 500 mg bid capsule, fed, nonelderly, day 11, estimated, mean × 0.53) of the same compound?
Answer: Its concentration at 12 h is 20.5 ng/mL.

Question: And the “CSF trough lower than peak levels” value ([1]; repeated bid dosing ≥50 mg)?
Answer: Its value is “approximately threefold lower”.

Question: And the “time of highest concentrations in the CSF” value ([1]; single oral solution, CSF sampling 1, 1.5 and 3 hours)?
Answer: The value was 3 h.

Question: What about the “QC activity in CSF” value (QC activity in CSF) of the same compound?
Answer: The value was “inhibited in a dose-related manner; also recorded: decreased in a dose-related manner”.

— article PMC5975062 (Alzheimer's & Dementia : Translational Research & Clinical …, 2015)
